Measurements taken from PubChem BioAssay AID2060501 (Molecular Pharmacology Branch, DTP, NCI, 2025).
pIC50: −log10 of the molar value. Each block holds one molecule with its values, some of them ahead of it.

System: 282377-053-R-J1-PDC complex spheroids, viability
Assay: Anticancer human tumor 282377-053-R-J1-PDC patient-derived colon adenocarcinoma cell line growth inhibition [GQUAD]
Details: for pIC50: curve of first compound; for viability, T/C: stronger effect = lower value
Source text: DNA G-quadruplex Stabilizer Agents in Combinations in Complex Spheroids
A high-throughput screen of multi-cell type tumor spheroids was designed to identify active combinations of DNA G-quadruplex stabilizer agents and targeted small molecules. Complex spheroids include a stromal component modeled by human endothelial cells (HUVEC) and fibroblasts modeled by human mesenchymal stem cells (MSCs). The concentration ranges selected for each drug and investigational agent were based upon clinically achievable concentrations if the clinical Cmax of the agent was known.
Compounds. The drugs and investigational agents: pidnarulex (CX-5461; NSC782164), APTO-253 (NSC789042), BRACO-19 (NSC847499), peposertib (NSC802822), ceralasertib (NSC780249), elimusertib (NSC800525), camonsertib (NSC841442), AZD-1390 (NSC803789), olaparib (NSC753686), talazoparib (NSC767125), ART-558 (NSC835418), sotorasib (NSC818433), MRTX-1133 (NSC836407), SN-38 (NSC673596), topotecan (NSC609699), etoposide (NSC141540), doxorubicin (NSC123127), gemcitabine (NSC613327), 5-fluorouracil (NSC19893), paclitaxel (NSC125973), vemurafenib (NSC761431), panobinostat (NSC761190), R-306465 (JNJ-16241199; NSC773264), adavosertib (NSC754352), TP-3654 (NSC805149), carboplatin (NSC241240), KSQ-4279 (NSC840948), and staurosporine (NSC755774) were obtained from the National Cancer Institute (NCI) Developmental Therapeutics Program Chemical Repository (34). The FDA-approved anticancer drug set is available from the NCI Developmental Therapeutics Program. […] The stock solutions were prepared in dimethyl sulfoxide (DMSO, Sigma-Aldrich, St. Louis, MO, cat. D2650) at 800-fold the tested concentration and stored at -70 degrees C prior to their use. All drugs and investigational agents were tested over a range starting from a high concentration at or near the clinical Cmax and decreasing in half-log increments. If the clinical Cmax for an agent had not been determined, the highest concentration tested was 10 microM.
2.3 Cell Culture. All cells were maintained in an incubator at 37 degrees C and 5% CO2 with 95% humidity. The PDC lines were cultured according to standard operating procedures established by the NCI PDMR. All PDCs were thawed and cultured in Matrigel-coated flasks prepared with a working solution of 1X Ham's F-12 nutrient mix, without supplementation (Invitrogen, cat. 11765054), 100 U/mL penicillin-streptomycin (Invitrogen, cat. 15140122), and 2.5% Matrigel (Corning Inc., cat. 354248) for the first three passages. The 857933-349-R-J2-PDC line was cultured in 6C/Colon 1B media, which includes advanced DMEM/F-12 (Thermo Fisher Scientific, cat. 12634028), 10 mM HEPES (Thermo Fisher Scientific, cat. 15630080), 1X GlutaMAX supplement (Thermo Fisher Scientific, cat. 35050061), 0.1 mg/mL primocin (InvivoGen, cat. ant-pm-2), 10% defined fetal bovine serum, heat inactivated (HyClone Laboratories Inc., cat. SH30070.03HI), 50% L-WRN conditioned media (ATCC, cat. CRL-3276), 1.25 mM N-Acetyl-L-cysteine (Sigma-Aldrich, cat. A9165), 10 mM nicotinamide (Sigma-Aldrich, cat. N0636), 1X B-27 supplement (Thermo Fisher Scientific, cat. 17504044), 1X N-2 supplement (Thermo Fisher Scientific, cat. 17502048), 10 microM Y-27632 dihydrochloride (Tocris Bioscience, cat. 1254), and 50 ng/mL human EGF recombinant protein (Thermo Fisher Scientific, cat. PHG0311). The 485176-168-R4-J1-PDC line was cultured in Panc media, which includes all 6C/Colon 1B media components plus 100 ng/mL human FGF-10 (Thermo Fisher Scientific, cat. 100-26), 500 nM SB-431542 (Selleckchem, cat. S1067), and gastrin (Tocris, cat. 3006).
[…]

[1] = second compound 0.0316 µM, first compound 0.0316 µM
[2] = second compound 0.0316 µM, first compound 0.1 µM
[3] = second compound 0.0316 µM, first compound 0.316 µM
[4] = second compound 0.0316 µM, first compound 1 µM
[5] = second compound 0.0316 µM, first compound 3.16 µM
[6] = second compound 0.0316 µM, first compound 10 µM
[7] = second compound 0.1 µM, first compound 0.0316 µM
[8] = second compound 0.1 µM, first compound 0.1 µM
[9] = second compound 0.1 µM, first compound 0.316 µM
[10] = second compound 0.1 µM, first compound 1 µM
[11] = second compound 0.1 µM, first compound 3.16 µM
[12] = second compound 0.1 µM, first compound 10 µM
[13] = second compound 0.316 µM, first compound 0.0316 µM
[14] = second compound 0.316 µM, first compound 0.1 µM
[15] = second compound 0.316 µM, first compound 0.316 µM
[16] = second compound 0.316 µM, first compound 1 µM
[17] = second compound 0.316 µM, first compound 3.16 µM
[18] = second compound 0.316 µM, first compound 10 µM
[19] = second compound 1 µM, first compound 0.0316 µM
[20] = second compound 1 µM, first compound 0.1 µM
[21] = second compound 1 µM, first compound 0.316 µM
[22] = second compound 1 µM, first compound 1 µM
[23] = second compound 1 µM, first compound 3.16 µM
[24] = second compound 1 µM, first compound 10 µM
[25] = second compound 3.16 µM, first compound 0.0316 µM
[26] = second compound 3.16 µM, first compound 0.1 µM
[27] = second compound 3.16 µM, first compound 0.316 µM
[28] = second compound 3.16 µM, first compound 1 µM
[29] = second compound 3.16 µM, first compound 3.16 µM
[30] = second compound 3.16 µM, first compound 10 µM
[31] = second compound 10 µM, first compound 0.0316 µM
[32] = second compound 10 µM, first compound 0.1 µM
[33] = second compound 10 µM, first compound 0.316 µM
[34] = second compound 10 µM, first compound 1 µM
[35] = second compound 10 µM, first compound 3.16 µM
[36] = second compound 10 µM, first compound 10 µM
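Also: spheroids exposed to compounds for 7 days before readout.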
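For viability, T/C in this document: percent of vehicle DMSO control viability with 100% = untreated-like growth.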

pIC50 (second compound 0.0316 µM): < 5.00
pIC50 (second compound 0.1 µM): < 5.00
pIC50 (second compound 0.316 µM): < 5.00
pIC50 (second compound 1 µM): < 5.00
pIC50 (second compound 3.16 µM): < 5.00
pIC50 (second compound 10 µM): 5.43
SMILES: C=CC(=O)N1CCN(c2nc(=O)n(-c3c(C)ccnc3C(C)C)c3nc(-c4c(O)cccc4F)c(F)cc23)C(C)C1 (stereo unspecified) + Cc1cnc(CNC(=O)c2c(=O)c3ccc(N4CCCN(C)CC4)nc3n3c2sc2ccccc23)cn1
viability, T/C [1]: 129%
viability, T/C [2]: 116%
viability, T/C [3]: 115%
viability, T/C [4]: 116%
viability, T/C [5]: 103%
viability, T/C [6]: 100%
viability, T/C [7]: 119%
viability, T/C [8]: 91.7%
viability, T/C [9]: 115%
viability, T/C [10]: 122%
viability, T/C [11]: 110%
viability, T/C [12]: 94.1%
viability, T/C [13]: 89.8%
viability, T/C [14]: 98.9%
viability, T/C [15]: 102%
viability, T/C [16]: 98.3%
viability, T/C [17]: 103%
viability, T/C [18]: 90.8%
viability, T/C [19]: 77.2%
viability, T/C [20]: 64.2%
viability, T/C [21]: 74.7%
viability, T/C [22]: 80.4%
viability, T/C [23]: 76%
viability, T/C [24]: 57.4%
viability, T/C [25]: 60.2%
viability, T/C [26]: 51%
viability, T/C [27]: 63.2%
viability, T/C [28]: 53.6%
viability, T/C [29]: 61.9%
viability, T/C [30]: 53.6%
viability, T/C [31]: 52.2%
viability, T/C [32]: 40.8%
viability, T/C [33]: 58.4%
viability, T/C [34]: 56.6%
viability, T/C [35]: 56.9%
viability, T/C [36]: 33%

pIC50 (second compound 0.0316 µM): > 7.50
pIC50 (second compound 0.1 µM): > 7.50
pIC50 (second compound 0.316 µM): > 7.50
pIC50 (second compound 1 µM): > 7.50
pIC50 (second compound 3.16 µM): > 7.50
pIC50 (second compound 10 µM): > 7.50
SMILES: CC(=O)O[C@H]1C(=O)[C@@]2(C)[C@H]([C@H](OC(=O)c3ccccc3)[C@]3(O)C[C@H](OC(=O)[C@H](O)[C@@H](NC(=O)c4ccccc4)c4ccccc4)C(C)=C1C3(C)C)[C@]1(OC(C)=O)CO[C@@H]1C[C@@H]2O + Cc1cnc(CNC(=O)c2c(=O)c3ccc(N4CCCN(C)CC4)nc3n3c2sc2ccccc23)cn1
viability, T/C [1]: 42.7%
viability, T/C [2]: 17.2%
viability, T/C [3]: 21.4%
viability, T/C [4]: 18.4%
viability, T/C [5]: 20.4%
viability, T/C [6]: 24.9%
viability, T/C [7]: 44.1%
viability, T/C [8]: 22.9%
viability, T/C [9]: 23.9%
viability, T/C [10]: 21.6%
viability, T/C [11]: 26.1%
viability, T/C [12]: 27.9%
viability, T/C [13]: 47.7%
viability, T/C [14]: 24.4%
viability, T/C [15]: 24.9%
viability, T/C [16]: 31.5%
viability, T/C [17]: 33.7%
viability, T/C [18]: 33.9%
viability, T/C [19]: 38.1%
viability, T/C [20]: 26.6%
viability, T/C [21]: 24.6%
viability, T/C [22]: 32.1%
viability, T/C [23]: 35.2%
viability, T/C [24]: 31.4%
viability, T/C [25]: 37.8%
viability, T/C [26]: 23.8%
viability, T/C [27]: 29.8%
viability, T/C [28]: 25.2%
viability, T/C [29]: 28.4%
viability, T/C [30]: 30.4%
viability, T/C [31]: 25.5%
viability, T/C [32]: 17%
viability, T/C [33]: 23%
viability, T/C [34]: 24.1%
viability, T/C [35]: 35.6%
viability, T/C [36]: 18.4%

pIC50 (second compound 0.0316 µM): 6.80
pIC50 (second compound 0.1 µM): 6.84
pIC50 (second compound 0.316 µM): 6.92
pIC50 (second compound 1 µM): 7.31
pIC50 (second compound 3.16 µM): > 7.50
pIC50 (second compound 10 µM): > 7.50
SMILES: Nc1ccn(C2OC(CO)C(O)C2(F)F)c(=O)n1 (stereo unspecified) + Cc1cnc(CNC(=O)c2c(=O)c3ccc(N4CCCN(C)CC4)nc3n3c2sc2ccccc23)cn1
viability, T/C [1]: 98.5%
viability, T/C [2]: 65.9%
viability, T/C [3]: 25.2%
viability, T/C [4]: 24%
viability, T/C [5]: 22.9%
viability, T/C [6]: 16.7%
viability, T/C [7]: 104%
viability, T/C [8]: 61.7%
viability, T/C [9]: 24.5%
viability, T/C [10]: 24.9%
viability, T/C [11]: 25.1%
viability, T/C [12]: 16.3%
viability, T/C [13]: 81.6%
viability, T/C [14]: 53.6%
viability, T/C [15]: 32%
viability, T/C [16]: 22.1%
viability, T/C [17]: 22.7%
viability, T/C [18]: 16.2%
viability, T/C [19]: 53.9%
viability, T/C [20]: 44.1%
viability, T/C [21]: 25.6%
viability, T/C [22]: 22.4%
viability, T/C [23]: 20.4%
viability, T/C [24]: 15.7%
viability, T/C [25]: 49.1%
viability, T/C [26]: 37.5%
viability, T/C [27]: 23.2%
viability, T/C [28]: 21%
viability, T/C [29]: 22.4%
viability, T/C [30]: 15.9%
viability, T/C [31]: 39.2%
viability, T/C [32]: 33.5%
viability, T/C [33]: 22.1%
viability, T/C [34]: 20.3%
viability, T/C [35]: 20%
viability, T/C [36]: 10.8%
